The values that follow come from article PMC11397024, “Strategic Fluorination to Achieve a Potent, Selective, Metabolically Stable, and Orally Bioavailable Inhibitor of CSNK2” (Molecules, 2024).

Data set [1] has as its system mouse hepatitis virus (MHV). The experiment in a line: MHV assay (MHV-nLuc in DBT cells). The following applies: Murine coronavirus, read-out: MHV pIC50 (converted).
Protocol: DBT cells were cultured at 37 °C in Dulbecco’s modified Eagle medium (DMEM; Sigma-Aldrich, St. Louis, MO, USA) supplemented with 10% fetal bovine serum (FBS; Avantor, Randor, PA, USA) and penicillin and streptomycin (Sigma-Aldrich, St. Louis, MO, USA). DBT cells were plated in 96-well plates to be 80% confluent at the start of the assay. Test compounds or positive control EIDD-1931 were diluted to 15 μM in DMEM. Serial 4-fold dilutions were made in DMEM, providing a concentration range of 15–0.22 μM. Media were aspirated from the DBT cells, and 100 μL of the diluted test compounds was added to the cells for 1 h at 37 °C. After 1 h, MHV-nLuc5 was added at an MOI of 0.1 in 50 μL of DMEM so that the final concentration of the first dilution of the compound was 10 μM (T = 0). After 10 h, the media were aspirated, and the cells were washed with PBS and lysed with passive lysis 5X buffer (Promega, Madison, WI, USA) for 20 min at room temperature. Relative light units (RLUs) were measured using a luminometer (Promega; GloMax, Madison, WI, USA). Triplicate data were analyzed in GraphPad Prism version 9.4.1 for macOS to generate IC50 values.
The nature of data set [2]: Hepatocyte stability, mouse. It is filed as in vitro ADME. The following applies: male, CD-1, cryopreserved hepatocytes, over 2 h. As for the experimental part: (§1) Human cryopreserved hepatocytes were supplied by BioIVT (lot QZW, 10 pooled donors, Westbury, NY, USA). Mouse cryopreserved hepatocytes were supplied by BioIVT (lot ZPG, pooled male CD-1). Vials of cryopreserved hepatocytes were removed from storage and thawed in a 37 °C water bath with gentle shaking, and then the contents were poured into a 50 mL thawing medium conical tube. Vials were centrifuged at 100× g for 10 min at room temperature. The thawing medium was aspirated, and hepatocytes were resuspended with a serum-free incubation medium to yield ~1.5 × 10^6 cells/mL. Cell viability and density were counted using AO/PI fluorescence staining, and then cells were diluted with a serum-free incubation medium to a working cell density of 0.5 × 10^6 viable cells/mL. Aliquots of 198 μL of hepatocytes were dispensed into each well of a 96-well noncoated plate. The plate was placed in an incubator for approximately 10 min. […] Peak areas were determined from extracted ion chromatograms, and the slope value, k, was determined by linear regression of the natural logarithm of the remaining percentage of the parent drug vs. incubation time curve. The intrinsic clearance (CLint in μL/min/10^6 cells) was calculated using the relationship CLint = kV/N, where V is the incubation volume (0.2 mL) and N is the number of hepatocytes per well (0.1 × 10^6 cells). […]

For a further data set, the target named is T1, MAP3K19 (Homo sapiens, UniProt Q56UN5).
T1 construct: purchased Promega (NanoBRET Target Engagement K192 Kinase Selectivity System)
T1 sequence (Q56UN5 whole entry): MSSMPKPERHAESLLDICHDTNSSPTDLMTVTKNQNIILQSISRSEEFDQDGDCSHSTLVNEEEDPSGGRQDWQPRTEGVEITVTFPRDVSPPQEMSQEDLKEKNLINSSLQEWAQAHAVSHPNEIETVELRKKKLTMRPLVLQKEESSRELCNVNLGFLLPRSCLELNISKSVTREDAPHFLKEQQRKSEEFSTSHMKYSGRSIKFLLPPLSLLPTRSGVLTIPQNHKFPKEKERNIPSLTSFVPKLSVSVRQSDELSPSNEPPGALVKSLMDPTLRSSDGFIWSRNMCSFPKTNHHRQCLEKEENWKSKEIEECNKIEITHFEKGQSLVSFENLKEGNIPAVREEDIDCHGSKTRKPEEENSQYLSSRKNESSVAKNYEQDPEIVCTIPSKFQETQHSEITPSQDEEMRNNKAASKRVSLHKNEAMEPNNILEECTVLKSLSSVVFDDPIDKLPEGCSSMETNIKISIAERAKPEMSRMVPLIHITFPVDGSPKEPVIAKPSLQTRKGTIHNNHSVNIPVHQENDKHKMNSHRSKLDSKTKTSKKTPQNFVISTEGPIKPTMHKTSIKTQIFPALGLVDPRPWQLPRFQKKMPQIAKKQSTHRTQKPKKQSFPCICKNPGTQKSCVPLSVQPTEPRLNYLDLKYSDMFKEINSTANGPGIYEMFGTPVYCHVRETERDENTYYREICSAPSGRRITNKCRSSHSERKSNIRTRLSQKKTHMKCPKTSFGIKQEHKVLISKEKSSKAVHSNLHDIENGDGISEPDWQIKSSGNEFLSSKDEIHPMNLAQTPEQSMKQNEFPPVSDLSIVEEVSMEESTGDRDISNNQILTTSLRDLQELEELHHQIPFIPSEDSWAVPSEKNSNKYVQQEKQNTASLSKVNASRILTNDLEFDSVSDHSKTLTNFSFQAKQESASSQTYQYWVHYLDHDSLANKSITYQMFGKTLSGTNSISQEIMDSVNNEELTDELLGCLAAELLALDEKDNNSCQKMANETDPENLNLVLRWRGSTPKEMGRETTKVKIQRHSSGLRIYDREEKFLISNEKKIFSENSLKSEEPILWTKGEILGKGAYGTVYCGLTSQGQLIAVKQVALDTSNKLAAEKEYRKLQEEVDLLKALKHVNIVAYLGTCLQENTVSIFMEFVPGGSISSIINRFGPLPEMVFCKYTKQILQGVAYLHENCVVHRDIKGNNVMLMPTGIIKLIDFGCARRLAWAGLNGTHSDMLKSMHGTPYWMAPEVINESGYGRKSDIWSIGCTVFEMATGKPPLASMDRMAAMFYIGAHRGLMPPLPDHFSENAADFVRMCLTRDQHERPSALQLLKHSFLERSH
Briefly: NanoBRET K192. The following applies: HEK293. In kind it is cell-based. The procedure, abridged: (§2)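 HEK293 cells were transfected overnight with NanoLuc–kinase fusion vectors, then treated for 2 h at 37 °C with compound (added as 100 μM working solution) plus K10 tracer. BRET was read at 450/610 nm after substrate and extracellular inhibitor, and fractional occupancy was calculated against no-compound controls.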
Background: BRET reads energy transfer from a luciferase to a nearby fluorophore.

The target in a further data set is T2, BTK (Homo sapiens, UniProt Q06187).
T2 construct: purchased Promega (NanoBRET Target Engagement K192 Kinase Selectivity System)
T2 sequence (Q06187 whole entry): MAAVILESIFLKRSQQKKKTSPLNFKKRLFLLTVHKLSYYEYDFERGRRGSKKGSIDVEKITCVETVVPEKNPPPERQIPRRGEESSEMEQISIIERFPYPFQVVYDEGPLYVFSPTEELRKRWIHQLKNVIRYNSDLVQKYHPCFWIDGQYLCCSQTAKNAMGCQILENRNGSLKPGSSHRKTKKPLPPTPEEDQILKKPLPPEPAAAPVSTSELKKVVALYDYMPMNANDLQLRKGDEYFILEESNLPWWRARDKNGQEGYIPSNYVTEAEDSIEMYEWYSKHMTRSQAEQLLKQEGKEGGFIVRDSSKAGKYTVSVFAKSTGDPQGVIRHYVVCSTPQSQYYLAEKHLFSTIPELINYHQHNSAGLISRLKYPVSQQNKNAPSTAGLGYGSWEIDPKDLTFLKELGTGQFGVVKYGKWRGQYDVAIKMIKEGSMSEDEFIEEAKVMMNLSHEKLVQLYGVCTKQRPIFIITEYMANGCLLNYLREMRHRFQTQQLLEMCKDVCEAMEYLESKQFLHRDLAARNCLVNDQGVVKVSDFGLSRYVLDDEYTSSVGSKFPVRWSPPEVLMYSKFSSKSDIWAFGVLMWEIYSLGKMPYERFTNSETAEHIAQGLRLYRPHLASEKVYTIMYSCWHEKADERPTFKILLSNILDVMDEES
The experiment in a line: NanoBRET K192. In kind it is cell-based. Particulars: HEK293. In outline:
as §2

A further data set addresses T3, FER (Homo sapiens, UniProt P16591).
T3 construct: purchased Promega (NanoBRET Target Engagement K192 Kinase Selectivity System)
Briefly: NanoBRET K192. It is filed as cell-based. Particulars: HEK293. The procedure, abridged: as §2

Another data set addresses T4, RIOK2 (Homo sapiens, UniProt Q9BVS4).
T4 construct: purchased Promega (NanoBRET Target Engagement K192 Kinase Selectivity System)
Briefly: NanoBRET K192. In kind it is cell-based. The following applies: HEK293. In outline:
as §2

Data set [3] can be described thus: Hepatocyte stability, human. In kind it is in vitro ADME. Particulars: cryopreserved hepatocytes, over 2 h. As for the experimental part: as §1

T4 sequence (Q9BVS4 whole entry): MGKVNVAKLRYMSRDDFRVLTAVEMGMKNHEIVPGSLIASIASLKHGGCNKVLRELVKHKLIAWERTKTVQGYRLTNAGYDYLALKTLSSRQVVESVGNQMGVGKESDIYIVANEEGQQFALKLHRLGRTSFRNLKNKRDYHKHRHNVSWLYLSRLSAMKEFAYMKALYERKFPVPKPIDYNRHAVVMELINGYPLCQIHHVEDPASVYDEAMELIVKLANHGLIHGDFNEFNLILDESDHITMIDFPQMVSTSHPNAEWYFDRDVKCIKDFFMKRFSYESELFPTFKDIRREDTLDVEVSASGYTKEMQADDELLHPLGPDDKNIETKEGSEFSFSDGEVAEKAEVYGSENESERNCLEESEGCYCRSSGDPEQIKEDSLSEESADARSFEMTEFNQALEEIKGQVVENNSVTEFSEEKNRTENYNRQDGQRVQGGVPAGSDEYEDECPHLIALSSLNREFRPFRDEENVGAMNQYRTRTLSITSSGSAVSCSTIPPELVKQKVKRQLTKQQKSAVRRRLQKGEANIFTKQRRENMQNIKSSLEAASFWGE
T3 sequence (P16591 whole entry): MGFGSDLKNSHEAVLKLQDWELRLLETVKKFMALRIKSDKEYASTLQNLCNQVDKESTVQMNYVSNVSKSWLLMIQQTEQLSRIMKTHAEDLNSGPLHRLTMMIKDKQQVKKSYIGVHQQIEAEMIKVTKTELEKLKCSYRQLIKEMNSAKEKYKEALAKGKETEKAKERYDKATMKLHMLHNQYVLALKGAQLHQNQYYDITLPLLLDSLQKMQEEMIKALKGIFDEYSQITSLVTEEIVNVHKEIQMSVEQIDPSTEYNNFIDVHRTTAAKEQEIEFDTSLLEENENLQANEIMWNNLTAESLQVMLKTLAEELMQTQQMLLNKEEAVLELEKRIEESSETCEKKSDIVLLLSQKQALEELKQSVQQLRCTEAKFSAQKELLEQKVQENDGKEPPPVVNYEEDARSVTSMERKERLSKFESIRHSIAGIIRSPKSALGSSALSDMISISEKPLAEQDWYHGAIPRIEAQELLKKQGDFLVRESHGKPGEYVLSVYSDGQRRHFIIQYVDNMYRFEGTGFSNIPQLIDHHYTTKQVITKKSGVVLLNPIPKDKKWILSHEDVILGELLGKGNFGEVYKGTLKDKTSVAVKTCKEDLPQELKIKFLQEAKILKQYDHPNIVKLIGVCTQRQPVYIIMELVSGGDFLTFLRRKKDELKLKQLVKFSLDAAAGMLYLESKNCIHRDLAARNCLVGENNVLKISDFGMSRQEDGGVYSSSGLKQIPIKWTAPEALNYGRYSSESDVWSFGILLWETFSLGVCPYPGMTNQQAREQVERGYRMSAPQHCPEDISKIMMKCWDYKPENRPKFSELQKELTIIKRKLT

As for `CCC(=O)Nc1cc(Nc2cc(NC3CC3)n3ncc(C#N)c3n2)c(F)cc1N1CCC[C@H](NC)C1` [Compound 2, (S)-N-(5-((3-cyano-7-(cyclopropylamino)pyrazolo[1,5-a]pyrimidin-5-yl)amino)-4-fluoro-2-(3-(methylamino)piperidin-1-yl)phenyl)propionamide], the IC50 in data set [1] is 158 nM. Further, the results for the intrinsic metabolic clearance (CLint scaled) at 1 μM in data set [2] and in data set [3] were 180 mL/min/kg and 6.9 mL/min/kg, respectively. Moreover, the receptor occupancy at 10 µM at MAP3K19 was 2.4%; at BTK it was 3%; at FER, 3.1%; on RIOK2, -1.8%.
